Measured values reported in PubChem BioAssay (NCI).
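Growth conditions: 96-well plates. Treatment: test compound, 48 hours, 5 concentrations. Analysis: linear interpolation between bracketing concentrations; unreached endpoints set to highest concentration. TGI: total growth inhibition.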

Key:
Assay in all cases: NCI-60 cell line screen, 48 h
SF-295 CNS = tested on: SF-295 CNS
COLO 205 colon = tested on: COLO 205 colon
RXF 393 renal = tested on: RXF 393 renal
MOLT-4 leukemia = tested on: MOLT-4 leukemia
OVCAR-3 ovarian = tested on: OVCAR-3 ovarian
HOP-18 NSCLC = tested on: HOP-18 NSCLC
UO-31 renal = tested on: UO-31 renal
NCI-H460 lung = tested on: NCI-H460 lung
U251 CNS = tested on: U251 CNS
DMS 273 small cell lung = tested on: DMS 273 small cell lung
HOP-92 NSCLC = tested on: HOP-92 NSCLC
A498 renal = tested on: A498 renal
KM12 colon = tested on: KM12 colon
MALME-3M melanoma = tested on: MALME-3M melanoma
HCT-15 colon = tested on: HCT-15 colon
A549 NSCLC = tested on: A549 NSCLC
HCC-2998 colon = tested on: HCC-2998 colon
OVCAR-5 ovarian = tested on: OVCAR-5 ovarian
OVCAR-8 ovarian = tested on: OVCAR-8 ovarian
SW-620 colon = tested on: SW-620 colon
LXFL 529 NSCLC = tested on: LXFL 529 NSCLC
UACC-62 melanoma = tested on: UACC-62 melanoma
XF 498 CNS = tested on: XF 498 CNS
KM20L2 colon = tested on: KM20L2 colon
UACC-257 melanoma = tested on: UACC-257 melanoma
SNB-19 CNS = tested on: SNB-19 CNS
SNB-75 CNS = tested on: SNB-75 CNS
ACHN renal = tested on: ACHN renal
SK-MEL-5 melanoma = tested on: SK-MEL-5 melanoma
CCRF-CEM leukemia = tested on: CCRF-CEM leukemia
NCI-H226 lung = tested on: NCI-H226 lung
SR leukemia = tested on: SR leukemia
DMS 114 small cell lung = tested on: DMS 114 small cell lung
IGROV1 ovarian = tested on: IGROV1 ovarian
SF-539 CNS = tested on: SF-539 CNS
SN12C renal = tested on: SN12C renal
TK-10 renal = tested on: TK-10 renal
M14 melanoma = tested on: M14 melanoma
NCI-H23 lung = tested on: NCI-H23 lung
HOP-62 NSCLC = tested on: HOP-62 NSCLC
HCT-116 colon = tested on: HCT-116 colon
SNB-78 CNS = tested on: SNB-78 CNS
K-562 leukemia = tested on: K-562 leukemia
M19-MEL melanoma = tested on: M19-MEL melanoma
HL-60(TB) leukemia = tested on: HL-60(TB) leukemia
NCI-H522 lung = tested on: NCI-H522 lung
SF-268 CNS = tested on: SF-268 CNS
RPMI-8226 leukemia = tested on: RPMI-8226 leukemia
OVCAR-4 ovarian = tested on: OVCAR-4 ovarian
CAKI-1 renal = tested on: CAKI-1 renal
SK-MEL-2 melanoma = tested on: SK-MEL-2 melanoma
786-0 renal = tested on: 786-0 renal
EKVX NSCLC = tested on: EKVX NSCLC
SK-OV-3 ovarian = tested on: SK-OV-3 ovarian
HT29 colon = tested on: HT29 colon
LOX IMVI melanoma = tested on: LOX IMVI melanoma
SK-MEL-28 melanoma = tested on: SK-MEL-28 melanoma
DLD-1 colon = tested on: DLD-1 colon

Measured: TGI

Cc1nc2cc3[nH]c4ccccc4c(=O)c3cc2s1
> 100 µM: SF-295 CNS | COLO 205 colon | RXF 393 renal | MOLT-4 leukemia | OVCAR-3 ovarian | HOP-18 NSCLC | UO-31 renal | NCI-H460 lung | U251 CNS | DMS 273 small cell lung | HOP-92 NSCLC | A498 renal | KM12 colon | MALME-3M melanoma | HCT-15 colon | A549 NSCLC | HCC-2998 colon | OVCAR-5 ovarian | OVCAR-8 ovarian | SW-620 colon | LXFL 529 NSCLC | UACC-62 melanoma | XF 498 CNS | KM20L2 colon | UACC-257 melanoma | SNB-19 CNS | SNB-75 CNS | ACHN renal | SK-MEL-5 melanoma | CCRF-CEM leukemia | NCI-H226 lung | SR leukemia | DMS 114 small cell lung | IGROV1 ovarian | SF-539 CNS | SN12C renal | TK-10 renal | M14 melanoma | NCI-H23 lung | HOP-62 NSCLC | HCT-116 colon | SNB-78 CNS | K-562 leukemia | M19-MEL melanoma | HL-60(TB) leukemia | NCI-H522 lung | SF-268 CNS | RPMI-8226 leukemia | OVCAR-4 ovarian | CAKI-1 renal | SK-MEL-2 melanoma | 786-0 renal | EKVX NSCLC | SK-OV-3 ovarian | HT29 colon

Cc1c2cc[n+](C)cc2c(C)c2c1[nH]c1ccc(OC(C)(C)C)cc12
> 100 µM: SF-295 CNS | COLO 205 colon | RXF 393 renal | MOLT-4 leukemia | HOP-18 NSCLC | LOX IMVI melanoma | UO-31 renal | NCI-H460 lung | U251 CNS | DMS 273 small cell lung | HOP-92 NSCLC | A498 renal | KM12 colon | MALME-3M melanoma | HCT-15 colon | A549 NSCLC | HCC-2998 colon | OVCAR-5 ovarian | OVCAR-8 ovarian | SW-620 colon | LXFL 529 NSCLC | UACC-62 melanoma | UACC-257 melanoma | SNB-75 CNS | ACHN renal | SK-MEL-5 melanoma | CCRF-CEM leukemia | NCI-H226 lung | SR leukemia | DMS 114 small cell lung | IGROV1 ovarian | SK-MEL-28 melanoma | SF-539 CNS | SN12C renal | TK-10 renal | M14 melanoma | NCI-H23 lung | HOP-62 NSCLC | HCT-116 colon | SNB-78 CNS | K-562 leukemia | M19-MEL melanoma | DLD-1 colon | HL-60(TB) leukemia | NCI-H522 lung | SF-268 CNS | RPMI-8226 leukemia | OVCAR-4 ovarian | CAKI-1 renal | SK-MEL-2 melanoma | 786-0 renal | SK-OV-3 ovarian | HT29 colon
